Test results as given in ChEMBL document CHEMBL5678812, “Inhibitors of p21-activated kinases (PAKs)” (J Med Chem, 2015).
≈ marks a conversion by molar mass, not a printed value.

How the values were obtained:
[1] = target: T1, Serine/threonine-protein kinase PAK 4 (Homo sapiens, UniProt O96013); assay: Inhibition of PAK4 (unknown origin) in presence of ATP by Z-LYTE enzymatic kinase assay
Target sequence in this assay (O96013 whole entry): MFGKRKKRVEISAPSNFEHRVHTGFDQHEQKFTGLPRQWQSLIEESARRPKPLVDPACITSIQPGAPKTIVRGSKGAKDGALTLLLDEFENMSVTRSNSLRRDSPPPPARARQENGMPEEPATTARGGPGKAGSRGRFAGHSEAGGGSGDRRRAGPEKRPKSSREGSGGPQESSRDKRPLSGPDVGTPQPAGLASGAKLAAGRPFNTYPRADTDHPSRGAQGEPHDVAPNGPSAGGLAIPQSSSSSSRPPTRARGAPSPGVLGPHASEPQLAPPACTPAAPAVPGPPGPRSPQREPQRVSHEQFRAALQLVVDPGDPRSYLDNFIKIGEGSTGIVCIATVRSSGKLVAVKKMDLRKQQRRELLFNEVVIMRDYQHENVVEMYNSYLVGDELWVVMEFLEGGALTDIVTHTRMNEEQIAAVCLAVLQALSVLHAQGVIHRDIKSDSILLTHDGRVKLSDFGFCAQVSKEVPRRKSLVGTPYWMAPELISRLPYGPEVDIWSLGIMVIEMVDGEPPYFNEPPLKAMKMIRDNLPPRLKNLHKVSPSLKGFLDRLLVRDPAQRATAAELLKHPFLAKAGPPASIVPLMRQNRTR

[2] = target: T1, Serine/threonine-protein kinase PAK 4; assay: Inhibition of PAK4 (unknown origin)
Target sequence in this assay (O96013 whole entry): as above

[3] = target: T1, Serine/threonine-protein kinase PAK 4; assay: Inhibition of PAK4 (unknown origin) at 10 uM relative to control
Target sequence in this assay (O96013 whole entry, looked up): as the sequence (O96013 whole entry) above

[4] = target: Serine/threonine-protein kinase PAK 4 (Mus musculus, UniProt Q8BTW9); assay: Inhibition of PAK4 in mouse NIH3T3 cells assessed as reduction in phosphorylated GEF-H1 accumulation incubated for 30 mins by immunoblotting analysis; assay type: cell-based
Serine/threonine-protein kinase PAK 4 (Mus musculus, UniProt Q8BTW9), sequence (Q8BTW9 whole entry): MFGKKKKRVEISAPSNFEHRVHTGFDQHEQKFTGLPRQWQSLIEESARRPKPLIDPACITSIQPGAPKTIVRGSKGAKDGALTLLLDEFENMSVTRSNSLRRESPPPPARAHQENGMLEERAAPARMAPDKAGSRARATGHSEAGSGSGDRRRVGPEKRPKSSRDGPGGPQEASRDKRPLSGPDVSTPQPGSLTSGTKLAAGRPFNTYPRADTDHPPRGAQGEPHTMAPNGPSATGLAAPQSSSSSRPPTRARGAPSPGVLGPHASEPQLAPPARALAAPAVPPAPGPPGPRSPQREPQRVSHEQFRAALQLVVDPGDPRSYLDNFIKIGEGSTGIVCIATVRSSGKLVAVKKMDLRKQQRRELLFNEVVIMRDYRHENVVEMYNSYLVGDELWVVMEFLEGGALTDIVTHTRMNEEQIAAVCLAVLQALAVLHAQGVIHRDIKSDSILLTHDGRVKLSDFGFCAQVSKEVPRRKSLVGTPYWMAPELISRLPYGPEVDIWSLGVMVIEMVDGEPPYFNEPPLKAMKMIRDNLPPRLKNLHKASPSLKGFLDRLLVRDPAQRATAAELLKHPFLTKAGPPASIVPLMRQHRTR

A549 = assay: Antitumor activity against human A549 cells xenografted in mouse assessed as tumor growth inhibition at 7.5 to 30 mg/kg, po measured for 9 to 18 days; assay type: functional; details: dose 7.5-30 mg/kg, time 9-18 day
[5] = target: Serine/threonine-protein kinase PAK 6 (Homo sapiens, UniProt Q9NQU5); assay: Inhibition of recombinant PAK6 (unknown origin)
Serine/threonine-protein kinase PAK 6, sequence (Q9NQU5 whole entry): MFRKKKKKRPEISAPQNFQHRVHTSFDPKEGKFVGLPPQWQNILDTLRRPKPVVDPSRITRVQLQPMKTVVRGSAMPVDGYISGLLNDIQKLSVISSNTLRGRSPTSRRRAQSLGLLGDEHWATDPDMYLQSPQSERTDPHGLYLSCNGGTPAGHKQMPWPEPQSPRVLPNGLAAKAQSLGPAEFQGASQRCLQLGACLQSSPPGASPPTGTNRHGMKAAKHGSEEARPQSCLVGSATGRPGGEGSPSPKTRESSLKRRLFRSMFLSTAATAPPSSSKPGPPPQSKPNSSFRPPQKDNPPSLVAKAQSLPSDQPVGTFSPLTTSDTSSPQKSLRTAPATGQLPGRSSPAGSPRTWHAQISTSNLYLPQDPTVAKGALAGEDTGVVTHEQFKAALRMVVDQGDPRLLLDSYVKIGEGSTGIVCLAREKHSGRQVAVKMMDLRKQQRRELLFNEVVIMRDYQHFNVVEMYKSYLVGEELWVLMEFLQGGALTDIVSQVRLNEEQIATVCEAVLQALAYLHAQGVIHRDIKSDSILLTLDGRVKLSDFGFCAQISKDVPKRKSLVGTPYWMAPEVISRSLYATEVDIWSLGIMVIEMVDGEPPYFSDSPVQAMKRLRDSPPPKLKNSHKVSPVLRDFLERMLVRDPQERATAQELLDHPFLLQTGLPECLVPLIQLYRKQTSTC

MDA-MB-231 = assay: Antitumor activity against human MDA-MB-231 cells xenografted in mouse assessed as tumor growth inhibition at 7.5 to 30 mg/kg, po measured for 9 to 18 days; assay type: functional; details: dose 7.5-30 mg/kg, time 9-18 day
M24met [6] = assay: Antitumor activity against human M24met cells xenografted in mouse assessed as tumor growth inhibition at 7.5 to 30 mg/kg, po measured for 9 to 18 days; assay type: functional; details: dose 7.5-30 mg/kg, time 9-18 day
[7] = target: Cyclin-dependent kinase 7 (Homo sapiens, UniProt P50613); assay: Inhibition of CDK7 (unknown origin)
Cyclin-dependent kinase 7, sequence (P50613 whole entry): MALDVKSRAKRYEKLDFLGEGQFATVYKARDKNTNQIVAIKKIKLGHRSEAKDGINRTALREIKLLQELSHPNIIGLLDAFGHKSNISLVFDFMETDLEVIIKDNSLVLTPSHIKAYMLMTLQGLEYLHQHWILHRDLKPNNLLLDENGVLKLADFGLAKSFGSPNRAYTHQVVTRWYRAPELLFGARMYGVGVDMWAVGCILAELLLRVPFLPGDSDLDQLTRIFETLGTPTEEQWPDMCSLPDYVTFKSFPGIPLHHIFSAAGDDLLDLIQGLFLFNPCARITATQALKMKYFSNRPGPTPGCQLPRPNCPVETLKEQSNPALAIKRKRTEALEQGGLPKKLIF

[8] = Inhibition of p53/pin 1 (unknown origin) interaction; parameters: species or system Homo sapiens
HCT-116 [9] = assay: Antitumor activity against human HCT-116 cells xenografted in mouse assessed as tumor growth inhibition at 7.5 to 30 mg/kg, po measured for 9 to 18 days; assay type: functional; details: dose 7.5-30 mg/kg, time 9-18 day
COLO 205 = assay: Antitumor activity against human COLO 205 cells xenografted in mouse assessed as tumor growth inhibition at 7.5 to 30 mg/kg, po measured for 9 to 18 days; assay type: functional; details: dose 7.5-30 mg/kg, time 9-18 day
[10] = target: Tumour suppressor p53/oncoprotein Mdm2 (Homo sapiens, UniProt P04637+Q00987); assay: Inhibition of MDM2/p53 (unknown origin) interaction; assay type: protein assay
[11] = target: Serine/threonine-protein kinase PAK 2 (Homo sapiens, UniProt Q13177); assay: Binding affinity to PAK2 (unknown origin) assessed as dissociation constant
Serine/threonine-protein kinase PAK 2, sequence (Q13177 whole entry): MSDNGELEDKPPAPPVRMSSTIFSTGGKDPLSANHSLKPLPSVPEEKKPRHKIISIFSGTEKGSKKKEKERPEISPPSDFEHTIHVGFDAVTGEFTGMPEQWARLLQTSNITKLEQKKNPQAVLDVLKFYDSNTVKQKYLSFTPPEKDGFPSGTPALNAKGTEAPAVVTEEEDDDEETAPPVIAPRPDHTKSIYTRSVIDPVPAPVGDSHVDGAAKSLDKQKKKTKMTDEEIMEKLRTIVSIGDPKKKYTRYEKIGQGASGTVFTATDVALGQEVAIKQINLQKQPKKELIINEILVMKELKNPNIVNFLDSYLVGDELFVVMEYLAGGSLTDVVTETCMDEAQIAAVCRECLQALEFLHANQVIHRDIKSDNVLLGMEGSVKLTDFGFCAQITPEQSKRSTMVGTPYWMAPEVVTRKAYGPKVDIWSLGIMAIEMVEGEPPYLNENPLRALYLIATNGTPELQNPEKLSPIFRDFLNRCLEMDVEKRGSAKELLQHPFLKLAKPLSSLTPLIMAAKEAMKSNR

[12] = Kinetic solubility of compound; assay type: physicochemical; details: read-out: Kinetic_solubility
[13] = target: T1, Serine/threonine-protein kinase PAK 4; assay: Inhibition of PAK4 (unknown origin) assessed as inhibition constant
Target sequence in this assay (O96013 whole entry): as the sequence (O96013 whole entry) above

[14] = target: T1, Serine/threonine-protein kinase PAK 4; assay: Binding affinity to PAK4 (unknown origin) assessed as dissociation constant
Target sequence in this assay (O96013 whole entry): as above

[15] = target: Serine/threonine-protein kinase PAK 3 (Homo sapiens, UniProt O75914); assay: Binding affinity to PAK3 (unknown origin) assessed as dissociation constant
Serine/threonine-protein kinase PAK 3, sequence (O75914 whole entry): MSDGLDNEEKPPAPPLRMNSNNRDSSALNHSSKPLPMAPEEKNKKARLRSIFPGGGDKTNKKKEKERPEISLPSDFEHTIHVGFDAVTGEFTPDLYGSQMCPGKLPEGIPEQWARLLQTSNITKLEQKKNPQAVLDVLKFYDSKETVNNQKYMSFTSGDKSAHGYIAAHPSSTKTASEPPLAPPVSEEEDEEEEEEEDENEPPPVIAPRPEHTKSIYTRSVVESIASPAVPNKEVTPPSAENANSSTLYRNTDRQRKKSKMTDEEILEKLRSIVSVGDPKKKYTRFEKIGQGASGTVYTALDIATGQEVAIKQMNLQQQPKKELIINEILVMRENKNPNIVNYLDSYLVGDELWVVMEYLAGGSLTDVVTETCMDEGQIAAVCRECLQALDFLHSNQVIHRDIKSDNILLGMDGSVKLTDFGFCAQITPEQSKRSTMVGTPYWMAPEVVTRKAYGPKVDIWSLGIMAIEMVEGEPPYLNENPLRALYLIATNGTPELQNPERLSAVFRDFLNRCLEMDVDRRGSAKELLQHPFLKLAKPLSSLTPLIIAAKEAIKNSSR

[16] = target: Serine/threonine-protein kinase PAK 5 (Homo sapiens, UniProt Q9P286); assay: Binding affinity to PAK7 (unknown origin) assessed as dissociation constant
Serine/threonine-protein kinase PAK 5, sequence (Q9P286 whole entry): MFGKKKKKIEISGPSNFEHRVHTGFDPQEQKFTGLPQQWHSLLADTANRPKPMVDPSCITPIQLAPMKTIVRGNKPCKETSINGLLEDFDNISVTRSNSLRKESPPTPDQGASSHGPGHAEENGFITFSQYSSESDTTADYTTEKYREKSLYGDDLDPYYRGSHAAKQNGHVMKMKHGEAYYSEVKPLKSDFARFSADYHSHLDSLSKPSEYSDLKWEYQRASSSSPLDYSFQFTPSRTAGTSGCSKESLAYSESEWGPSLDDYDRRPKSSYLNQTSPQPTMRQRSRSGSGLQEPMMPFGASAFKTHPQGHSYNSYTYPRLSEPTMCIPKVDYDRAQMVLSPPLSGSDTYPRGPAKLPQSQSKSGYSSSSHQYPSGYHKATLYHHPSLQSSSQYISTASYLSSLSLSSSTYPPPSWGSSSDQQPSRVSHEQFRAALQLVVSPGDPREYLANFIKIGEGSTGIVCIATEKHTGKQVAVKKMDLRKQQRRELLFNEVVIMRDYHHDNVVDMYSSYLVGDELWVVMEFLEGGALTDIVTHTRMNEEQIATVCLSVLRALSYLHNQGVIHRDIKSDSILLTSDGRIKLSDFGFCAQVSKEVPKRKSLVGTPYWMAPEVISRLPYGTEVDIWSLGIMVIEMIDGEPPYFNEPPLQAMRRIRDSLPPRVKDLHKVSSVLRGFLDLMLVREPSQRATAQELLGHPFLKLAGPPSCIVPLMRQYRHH

[17] = Oral bioavailability in dog at 10 mg/kg; assay type: ADME, organism-based, Canis lupus familiaris; details: in vivo
M24met [18] = assay: Antitumor activity against human M24met cells xenografted in mouse assessed as tumor growth inhibition at 15 mg/kg, po; assay type: functional; details: read-out: TGI
HCT-116 [19] = assay: Antitumor activity against human HCT-116 cells xenografted in mouse assessed as tumor growth inhibition at 20 mg/kg, po; assay type: functional; details: read-out: TGI
[20] = Clearance in dog at 10 mg/kg, po; assay type: ADME, organism-based, Canis lupus familiaris; details: in vivo
[21] = Clearance in rat at 10 mg/kg, po; assay type: ADME, organism-based; details: in vivo
HCT-116 [22] = assay: Antitumor activity against human HCT-116 cells xenografted in mouse assessed as tumor growth inhibition at 12 mg/kg, po; assay type: functional; details: read-out: TGI
[23] = Half life in dog at 10 mg/kg, po; assay type: ADME, organism-based, Canis lupus familiaris; details: in vivo
[24] = Apparent permeability across apical to basolateral side in human Caco-2 cells; assay type: ADME, cell-based
HCT-116 [25] = assay: Antitumor activity against human HCT-116 cells xenografted in mouse assessed as downregulation of GEF-H1 phosphorylation at 25 mg/kg, po measured after 18 hrs; assay type: functional
[26] = target: T1, Serine/threonine-protein kinase PAK 4; assay: Inhibition of PAK4 (unknown origin) using 5-FAM-AhxKKRNRRLSVA-amide as substrate incubated for 90 mins by caliper off-chip mobility shift assay
Target sequence in this assay (O96013 whole entry): as the sequence (O96013 whole entry) above

## CCn1c(=O)c(-c2ccc(-c3cncs3)cc2Cl)cc2cnc(Nc3ccc(N4CCN(C)CC4)cc3)nc21
[1]
  IC50: > 10 µM

## COc1nc(NCCc2c[nH]c3ccccc23)nc(Nc2ccc3[nH]ncc3c2)n1
[2]
  IC50: 790 nM

## CCn1cnc2c(Nc3cccc(Cl)c3)nc(NC3CCCCC3N)nc21 (stereo not given)
[3]
  inhibition: 44%

## CN1CCN(C(=O)N2Cc3c(NC(=O)c4cccc(Oc5ccccc5)c4)n[nH]c3C2(C)C)[C@@H](Cc2ccccc2)C1
[4]
  EC50: 810 nM

## Cc1nc(Nc2n[nH]c3c2CN(C(=O)N[C@H](CN(C)C)c2ccccc2)C3(C)C)c2sccc2n1 [PF-03758309]
A549
  TGI: >70%
[5]
  IC50: ~20 nM
MDA-MB-231
  TGI: >70%
M24met [6]
  TGI: >70%
[7]
  IC50: 7 nM
[8]
  IC50: 5.7 nM
HCT-116 [9]
  TGI: >70%
COLO 205
  TGI: >70%
[10]
  IC50: 5.6 nM

## CN(C)C[C@@H](NC(=O)c1ccc2[nH]nc(-c3nc4ccccc4[nH]3)c2c1)c1ccccc1
[4]
  EC50: 13 nM

## CC(C)NC(=O)N1CCC(NC2=Nc3cc(F)ccc3N(CC(F)F)c3ccc(Cl)cc32)C1 (stereo not given)
[11]
  Kd: 400 nM
[12]
  solubility kinetic: 55 µM (≈ 26.4 µg/mL)

## N[C@@H]1[C@H]2CN(c3nc(Nc4cc(C5CC5)[nH]n4)c4sccc4n3)C[C@@H]12
[13]
  Ki: 4 nM

## CCn1c(=O)c(-c2ccc(-c3noc(C)n3)cc2Cl)cc2cnc(Nc3ccc(C4CCN(C)CC4)cc3)nc21
[2]
  IC50: 960 nM

## CCN1c2ccc(F)cc2N=C(NC2CCN(C(=O)NC(C)(C)C)C2)c2cc(Cl)ccc21 (stereo not given)
[11]
  Kd: 1100 nM
[14]
  Kd: > 40 µM
[15]
  Kd: > 40 µM
[16]
  Kd: > 40 µM

## CN(C)C[C@@H](OC(=O)N1Cc2c(NC(=O)C(C)(C)C)n[nH]c2C1(C)C)c1ccccc1
[17]
  bioavailability: 20%
M24met [18]
  inhibition in vivo at 15 mg/kg: 68%
HCT-116 [19]
  inhibition in vivo at 20 mg/kg: 52%
[20]
  CL/F: 12 mL/min/kg
[21]
  CL/F: 52 mL/min/kg
[4]
  EC50: 4 nM
HCT-116 [22]
  inhibition in vivo at 12 mg/kg: 37%
[23]
  half-life: 132 min
[24]
  Papp A→B: 1.7 ×10⁻⁶ cm/s

## CN(C)C[C@@H](NC(=O)N1Cc2c(NC(=O)c3ccccc3)n[nH]c2C1(C)C)c1ccccc1
HCT-116 [25]
  Activity: ~61%
[4]
  EC50: 32 nM
[24]
  Papp A→B: 0.1 ×10⁻⁶ cm/s

## O=C(c1ccccc1Cl)c1n[nH]c2ncc(-c3cnn(C4CCNCC4)c3)cc12
[26]
  IC50: 550 nM
